{"source": "patent US20170368082A1", "about": "“FORMULATIONS OF BRINCIDOFOVIR” (priority 2016, published 2017)", "assay": "Phase 2 toxicokinetics of brincidofovir and cidofovir in plasma", "assay_type": "in vivo, Sprague-Dawley CD rats", "conditions": "for Cmax/Dose / Tlast / AUClast/Dose / AUC(0-t) / Cmax / Tmax: brincidofovir in plasma; for concentration at 1 h / concentration at 2 h / concentration at 8 h / concentration at 24 h / concentration at 0 h / AUC(0-t) / Cmax / Tmax: female, Sprague-Dawley CD, rat, plasma; for concentration at 1 h / concentration at 2 h / concentration at 8 h / concentration at 24 h / concentration at 0 h: intravenous; for AUC(0-t) / Cmax / Tmax: iv; for Tmax: read-out: Tmax", "description": "Plasma samples (108) were collected 2 hours following the initiation of dosing on Day 1 and Day 7 (Group 1), or at 1, 2, 8, and 24 hours following the initiation of dosing on Day 1, and prior to administration and at 2, 8, and 24 hours following the initiation of dosing on Day 7 (Groups 2 and 3), and analyzed to determine the concentrations of brincidofovir and the metabolite, cidofovir), by LC/MS/MS.\nApproximately 0.4 mL of whole blood was obtained via the tail vein from each animal at each time point. Animals were not fasted prior to blood collection. Blood was collected into tubes containing K2EDTA anticoagulant and placed on wet ice in an upright position, per facility SOP prior to processing. Plasma was separated by centrifugation (10 minutes at approximately 2000 g, at approximately 2-8° C.). Approximately 0.10 mL of plasma was transferred into a single cryotube appropriately labeled with study number, animal number, time point, date of sampling and sample type. Remaining plasma was transferred into a second cryotube and retained as a backup sample. Plasma frozen at approximately −80±10° C. within approximately 2 hours after collection of each blood sample until analysis. Animals were euthanized (CO2 inhalation) after the final blood collection.\nIn general, TK parameters were estimated using mean plasma concentrations of brincidofovir and cidofovir derived from the composite blood sampling design using Phoenix WinNonLin (V 6.3).\nA composite blood sampling design was used such that each rat was sampled twice per sampling day. Blood was collected via tail vein from unanesthetized animals into tubes containing anticoagulant and placed on wet ice in an upright position. Animals were not fasted prior to blood collection. Plasma was separated by centrifugation (for 10 minutes at approximately 2000 g, at approximately 2-8° C.), and transferred into individually labeled cryotubes. All cryotubes containing the collected plasma samples were appropriately labeled as to study number, animal number, time point, date of sampling and sample type. All plasma samples were obtained and frozen at approximately −80° C. (±10° C.) within approximately 2 hours after collection of each blood sample until analysis.\nRat plasma bioanalysis was conducted by Pyxant Laboratories. Plasma samples were analyzed for concentrations of brincidofovir and cidofovir using a method based upon protein precipitation extraction followed by LC-MS/MS analysis; calibration ranges for brincidofovir and cidofovir were 1.00-1500 ng/mL and 5.00-750 ng/mL, respectively, (Pyxant study number 3025) for a 50 μL aliquot of rat plasma. Sample analysis for ISR was not performed as part of this non-GLP study.\nFor the generation of Mean Profiles, all sample concentrations that were below the limit of quantitation (BLQ) were set to 0.\nAll pharmacokinetic parameter estimates were completed using a Non-Compartmental Model (Model 200-202 for IV infusion administration). The AUClast and AUCinf were calculated using the linear up log down trapezoidal rule.", "key": {"[1]": {"conditions": "1 mg/kg 2-hour IV infusion, Male rats, Day 1"}, "[2]": {"conditions": "1 mg/kg 2-hour IV infusion, Male rats, Day 7"}, "[3]": {"conditions": "15 mg/kg 2-hour IV infusion, Female rats, Day 1"}, "[4]": {"conditions": "15 mg/kg 2-hour IV infusion, Female rats, Day 7"}, "[5]": {"conditions": "15 mg/kg 2-hour IV infusion, Male rats, Day 1"}, "[6]": {"conditions": "15 mg/kg 2-hour IV infusion, Male rats, Day 7"}, "[7]": {"conditions": "1 mg/kg, 1 mg/kg 2-hour IV infusion, Female rats, Day 1"}, "[8]": {"conditions": "1 mg/kg, 1 mg/kg 2-hour IV infusion, Female rats, Day 7"}}, "note": "Read-outs that look alike come from different tables or passages of the source.", "data": [{"smiles": "CCCCCCCCCCCCCCCCOCCCOP(=O)(O)CO[C@H](CO)Cn1ccc(N)nc1=O", "note": "[Brincidofovir]", "values": [{"measurement": "Cmax/Dose", "setting": "[1]", "result": "235 (ng/mL)/(mg/kg)"}, {"measurement": "Tlast", "setting": "[1]", "result": 2, "unit": "h"}, {"measurement": "Cmax/Dose", "setting": "[2]", "result": "208 (ng/mL)/(mg/kg)"}, {"measurement": "Tlast", "setting": "[2]", "result": 2, "unit": "h"}, {"measurement": "AUClast/Dose", "setting": "[3]", "result": "491 (h*ng/mL)/(mg/kg)"}, {"measurement": "Cmax/Dose", "setting": "[3]", "result": "231 (ng/mL)/(mg/kg)"}, {"measurement": "Tlast", "setting": "[3]", "result": 24, "unit": "h"}, {"measurement": "AUClast/Dose", "setting": "[4]", "result": "228 (h*ng/mL)/(mg/kg)"}, {"measurement": "Cmax/Dose", "setting": "[4]", "result": "110 (ng/mL)/(mg/kg)"}, {"measurement": "Tlast", "setting": "[4]", "result": 24, "unit": "h"}, {"measurement": "AUClast/Dose", "setting": "[5]", "result": "585 (h*ng/mL)/(mg/kg)"}, {"measurement": "Cmax/Dose", "setting": "[5]", "result": "291 (ng/mL)/(mg/kg)"}, {"measurement": "Tlast", "setting": "[5]", "result": 24, "unit": "h"}, {"measurement": "AUClast/Dose", "setting": "[6]", "result": "273 (h*ng/mL)/(mg/kg)"}, {"measurement": "Cmax/Dose", "setting": "[6]", "result": "127 (ng/mL)/(mg/kg)"}, {"measurement": "Tlast", "setting": "[6]", "result": 24, "unit": "h"}, {"measurement": "concentration at 1 h", "setting": "1 mg/kg, brincidofovir 1 mg/kg, Female, Day 1, 1 h, read-out: brincidofovir Imputed Mean Concentration (IMC)", "result": 137, "unit": "ng/mL"}, {"measurement": "concentration at 1 h", "setting": "1 mg/kg, brincidofovir 1 mg/kg, Female, Day 1, 1 h, read-out: brincidofovir Mean Concentration (MC)", "result": 137, "unit": "ng/mL"}, {"measurement": "concentration at 2 h", "setting": "1 mg/kg, brincidofovir 1 mg/kg, Female, Day 1, 2 h, read-out: brincidofovir Imputed Mean Concentration (IMC)", "result": 191, "unit": "ng/mL"}, {"measurement": "concentration at 2 h", "setting": "1 mg/kg, brincidofovir 1 mg/kg, Female, Day 1, 2 h, read-out: brincidofovir Mean Concentration (MC)", "result": 191, "unit": "ng/mL"}, {"measurement": "concentration at 8 h", "setting": "1 mg/kg, brincidofovir 1 mg/kg, Female, Day 1, 8 h, read-out: brincidofovir Imputed Mean Concentration (IMC)", "result": 1.25, "unit": "ng/mL"}, {"measurement": "concentration at 8 h", "setting": "1 mg/kg, brincidofovir 1 mg/kg, Female, Day 1, 8 h, read-out: brincidofovir Mean Concentration (MC)", "result": 1.25, "unit": "ng/mL"}, {"measurement": "concentration at 24 h", "setting": "1 mg/kg, brincidofovir 1 mg/kg, Female, Day 1, 24 h, read-out: brincidofovir Mean Concentration (MC)", "result": 0, "unit": "ng/mL"}, {"measurement": "concentration at 0 h", "setting": "1 mg/kg, brincidofovir 1 mg/kg, Female, Day 7, 0 h, read-out: brincidofovir Imputed Mean Concentration (IMC)", "result": 0, "unit": "ng/mL"}, {"measurement": "concentration at 0 h", "setting": "1 mg/kg, brincidofovir 1 mg/kg, Female, Day 7, 0 h, read-out: brincidofovir Mean Concentration (MC)", "result": 0, "unit": "ng/mL"}, {"measurement": "concentration at 2 h", "setting": "1 mg/kg, brincidofovir 1 mg/kg, Female, Day 7, 2 h, read-out: brincidofovir Imputed Mean Concentration (IMC)", "result": 95.4, "unit": "ng/mL"}, {"measurement": "concentration at 2 h", "setting": "1 mg/kg, brincidofovir 1 mg/kg, Female, Day 7, 2 h, read-out: brincidofovir Mean Concentration (MC)", "result": 95.4, "unit": "ng/mL"}, {"measurement": "concentration at 8 h", "setting": "1 mg/kg, brincidofovir 1 mg/kg, Female, Day 7, 8 h, read-out: brincidofovir Imputed Mean Concentration (IMC)", "result": 2.19, "unit": "ng/mL"}, {"measurement": "concentration at 8 h", "setting": "1 mg/kg, brincidofovir 1 mg/kg, Female, Day 7, 8 h, read-out: brincidofovir Mean Concentration (MC)", "result": 2.19, "unit": "ng/mL"}, {"measurement": "concentration at 1 h", "setting": "1 mg/kg, brincidofovir 1 mg/kg 2-h IV infusion, female rats, Day 1, 1 h, BLQ imputed as zero, read-out: Imputed Concentration, Mean", "result": 137, "unit": "ng/mL"}, {"measurement": "concentration at 1 h", "setting": "1 mg/kg, brincidofovir 1 mg/kg 2-h IV infusion, female rats, Day 1, 1 h, BLQ imputed as zero, read-out: Imputed Concentration, individual animals", "result": 109, "unit": "ng/mL"}, {"measurement": "concentration at 2 h", "setting": "1 mg/kg, brincidofovir 1 mg/kg 2-h IV infusion, female rats, Day 1, 2 h, BLQ imputed as zero, read-out: Imputed Concentration, Mean", "result": 191, "unit": "ng/mL"}, {"measurement": "concentration at 2 h", "setting": "1 mg/kg, brincidofovir 1 mg/kg 2-h IV infusion, female rats, Day 1, 2 h, BLQ imputed as zero, read-out: Imputed Concentration, individual animals", "result": 253, "unit": "ng/mL"}, {"measurement": "concentration at 8 h", "setting": "1 mg/kg, brincidofovir 1 mg/kg 2-h IV infusion, female rats, Day 1, 8 h, BLQ imputed as zero, read-out: Imputed Concentration, Mean", "result": 1.25, "unit": "ng/mL"}, {"measurement": "concentration at 24 h", "setting": "1 mg/kg, brincidofovir 1 mg/kg 2-h IV infusion, female rats, Day 1, 24 h, BLQ imputed as zero, read-out: Imputed Concentration, Mean", "result": 0, "unit": "ng/mL"}, {"measurement": "concentration at 24 h", "setting": "1 mg/kg, brincidofovir 1 mg/kg 2-h IV infusion, female rats, Day 1, 24 h, BLQ imputed as zero, read-out: Imputed Concentration, individual animals", "result": 0, "unit": "ng/mL"}, {"measurement": "concentration at 0 h", "setting": "1 mg/kg, brincidofovir 1 mg/kg 2-h IV infusion, female rats, Day 7, 0 h, BLQ imputed as zero, read-out: Imputed Concentration, individual animals", "result": 0, "unit": "ng/mL"}, {"measurement": "concentration at 2 h", "setting": "15 mg/kg, 15 mg/kg, female rats, Day 1, 2 h, read-out: IC (Imputed Concentration), individual animals", "result": 2460, "unit": "ng/mL"}, {"measurement": "concentration at 8 h", "setting": "15 mg/kg, 15 mg/kg, female rats, Day 1, 8 h, read-out: C (Concentration), individual animals", "result": 5.05, "unit": "ng/mL"}, {"measurement": "concentration at 8 h", "setting": "15 mg/kg, 15 mg/kg, female rats, Day 1, 8 h, read-out: IC (Imputed Concentration), individual animals", "result": 5.05, "unit": "ng/mL"}, {"measurement": "concentration at 24 h", "setting": "15 mg/kg, 15 mg/kg, female rats, Day 1, 24 h, read-out: C (Concentration), individual animals", "result": 2.32, "unit": "ng/mL"}, {"measurement": "concentration at 24 h", "setting": "15 mg/kg, 15 mg/kg, female rats, Day 1, 24 h, read-out: IC (Imputed Concentration), individual animals", "result": 2.32, "unit": "ng/mL"}, {"measurement": "concentration at 8 h", "setting": "15 mg/kg, 15 mg/kg, female rats, Day 7, 8 h, read-out: C (Concentration), individual animals", "result": 5.32, "unit": "ng/mL"}, {"measurement": "concentration at 8 h", "setting": "15 mg/kg, 15 mg/kg, female rats, Day 7, 8 h, read-out: IC (Imputed Concentration), individual animals", "result": 5.32, "unit": "ng/mL"}, {"measurement": "concentration at 24 h", "setting": "15 mg/kg, 15 mg/kg, female rats, Day 7, 24 h, read-out: C (Concentration), individual animals", "result": 2.37, "unit": "ng/mL"}, {"measurement": "AUC(0-t)", "setting": "[7]", "result": 459, "unit": "ng·h/mL"}, {"measurement": "Cmax", "setting": "[7]", "result": 191, "unit": "ng/mL"}, {"measurement": "Tmax", "setting": "[7]", "result": 2, "unit": "h"}, {"measurement": "AUC(0-t)", "setting": "[8]", "result": 244, "unit": "ng·h/mL"}, {"measurement": "Cmax", "setting": "[8]", "result": 95.4, "unit": "ng/mL"}, {"measurement": "Tmax", "setting": "[8]", "result": 2, "unit": "h"}]}]}
